Experimental data as given in patent US4582822A, “Antibiotic A80190, pharmaceutical compositions containing same and method of use” (Eli Lilly and Company, priority 1984, dated 1986).
Where a SMILES comes first, the peptide text is derived from it. Bridges are numbered along the chain shown (N, C = ends). [ ]: non-standard residue; d: D form. The star is where a group is joined. Ileψ(thiazoline)Cys = CC[C@H](C)[C@H](N)C1=N[C@H](C(=O)*)CS1; dOrn = NCCC[C@@H](N)C(=O)O

What was measured:
A. macra = experiment: Resistance to antibiotics, sensitivity discs on seeded agar; format: cell-based, Actinomadura macra
Procedure: (§1) Resistance to antibiotics was measured by padding antibiotic sensitivity discs onto the surface of seeded ISP No. 2 agar plates.
(§2) Table III lists the resistance of the strain to various antibiotics at the concentrations indicated and compares it to that of A. macra.

NRRL 15878 = experiment: as above; format: cell-based, Actinomadura oligospora
Procedure: as §1, §2

Compound: CC[C@H](C)[C@H](N)C1=N[C@H](C(=O)N[C@@H](CC(C)C)C(=O)N[C@H](CCC(=O)O)C(=O)N[C@H](C(=O)N[C@H]2CCCCNC(=O)[C@H](CC(N)=O)NC(=O)[C@@H](CC(=O)O)NC(=O)[C@H](Cc3cnc[nH]3)NC(=O)[C@@H](Cc3ccccc3)NC(=O)[C@H]([C@@H](C)CC)NC(=O)[C@@H](CCCN)NC2=O)[C@@H](C)CC)CS1 [Bacitracin] ({Ileψ(thiazoline)Cys}-L[dE]IK[dOrn]I[dF]H[dD]N; lactam 4-C)
- Resistance to Antibiotics (A. macra; 10 units): -
- Resistance to Antibiotics (NRRL 15878; 10 units): +

Compound: CC(=O)OCC1=C(C(=O)O)N2C(=O)[C@@H](NC(=O)Cc3cccs3)[C@H]2SC1 [Cephalothin]
- Resistance to Antibiotics (A. macra; 30 μg): +

Compound: CC1(C)S[C@@H]2[C@H](NC(=O)Cc3ccccc3)C(=O)N2[C@H]1C(=O)O [Pencillin G]
- Resistance to Antibiotics (A. macra; 10 units): +
- Resistance to Antibiotics (NRRL 15878; 10 units): +

Compound: CO[C@H]1/C=C/O[C@@]2(C)Oc3c(C)c(O)c4c(O)c(c(/C=N/N5CCN(C)CC5)c(O)c4c3C2=O)NC(=O)/C(C)=C\C=C\[C@H](C)[C@H](O)[C@@H](C)[C@@H](O)[C@@H](C)[C@H](OC(C)=O)[C@@H]1C [Rifampin]
- Resistance to Antibiotics (A. macra; 5 μg): +

Compound: CN[C@@H]1[C@H](O[C@H]2[C@H](O[C@H]3[C@H](O)[C@@H](O)[C@H](N=C(N)N)[C@@H](O)[C@@H]3N=C(N)N)O[C@@H](C)[C@]2(O)C=O)O[C@@H](CO)[C@H](O)[C@H]1O [Streptocmycin]
- Resistance to Antibiotics (A. macra; 10 μg): +
- Resistance to Antibiotics (NRRL 15878; 10 μg): -

Compound: CN[C@H](CC(C)C)C(=O)N[C@H]1C(=O)N[C@@H](CC(N)=O)C(=O)N[C@H]2C(=O)N[C@H]3C(=O)N[C@H](C(=O)N[C@H](C(=O)O)c4cc(O)cc(O)c4-c4cc3ccc4O)[C@H](O)c3ccc(c(Cl)c3)Oc3cc2cc(c3O[C@@H]2O[C@H](CO)[C@@H](O)[C@H](O)[C@H]2O[C@H]2C[C@](C)(N)[C@H](O)[C@H](C)O2)Oc2ccc(cc2Cl)[C@H]1O [Vancomycin]
- Resistance to Antibiotics (A. macra; 30 μg): -
- Resistance to Antibiotics (NRRL 15878; 30 μg): -

Compound: Gentamicin
- Resistance to Antibiotics (A. macra; 10 μg): -
- Resistance to Antibiotics (NRRL 15878; 10 μg): -

Compound: Tetracycline
- Resistance to Antibiotics (A. macra; 30 μg): -
- Resistance to Antibiotics (NRRL 15878; 30 μg): -
